This note sets out measurements from ChEMBL document CHEMBL4819035, “C-2-Linked Dimeric Strychnine Analogues as Bivalent Ligands Targeting Glycine Receptors” (J Nat Prod, 2021).

Bounds are passed on as bounds.

Assay [1] deals with T1, Glycine receptor subunit alpha-1 (Homo sapiens, UniProt P23415).
T1 sequence (P23415 whole entry): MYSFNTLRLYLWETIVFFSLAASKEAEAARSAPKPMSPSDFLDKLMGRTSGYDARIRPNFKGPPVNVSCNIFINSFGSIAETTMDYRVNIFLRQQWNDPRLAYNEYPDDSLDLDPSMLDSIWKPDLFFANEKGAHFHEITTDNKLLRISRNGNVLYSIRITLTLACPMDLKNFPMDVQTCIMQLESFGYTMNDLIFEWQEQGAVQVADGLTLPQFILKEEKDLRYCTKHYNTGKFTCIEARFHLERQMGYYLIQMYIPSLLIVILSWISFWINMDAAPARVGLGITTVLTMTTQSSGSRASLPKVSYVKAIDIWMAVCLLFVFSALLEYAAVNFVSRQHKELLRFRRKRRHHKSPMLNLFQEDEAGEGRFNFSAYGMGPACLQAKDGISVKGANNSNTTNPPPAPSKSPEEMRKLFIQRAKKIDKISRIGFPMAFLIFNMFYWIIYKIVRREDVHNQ
The experiment in a line: Antagonist activity at human glycine receptor subunit alpha-1 expressed in human tsA201 cells assessed as reduction in glycine-induced response incubated for 30 mins by fluorescence-based FLIPR membrane potential blue assay. The format is cell-based.

Assay [2] has as its target Glycine receptor (alpha-1/beta) (Homo sapiens, UniProt P23415+P48167). Description: Antagonist activity at human glycine receptor subunit alpha-1beta expressed in human tsA201 cells assessed as reduction in glycine-induced response incubated for 30 mins by fluorescence-based FLIPR membrane potential blue assay. In kind it is cell-based. The note with it: for pIC50: tsa201.

Assay [3] concerns the target T1, Glycine receptor subunit alpha-1. The experiment in a line: Antagonist activity at human glycine receptor subunit alpha-1 expressed in HEK293 cells assessed as reduction in glycine-induced currents by whole-cell patch-clamp assay. In kind it is cell-based.
The target is the same in assay [4]. Description: Displacement of [3H]strychnine from human glycine receptor subunit alpha-1 expressed in HEK293 cell membranes preincubated for 30 mins followed by [3H]strychnine addition and measured after 30 mins by liquid scintillation counting method. Details: species or system Membrane.
Assay [5] has the same target. The experiment in a line: Antagonist activity at human glycine receptor subunit alpha-1 assessed as inhibition of glycine-induced current measured at the onset of compound application by patch-clamp assay.
Assay [6] has the same target. Description: Antagonist activity at human glycine receptor subunit alpha-1 assessed as inhibition of glycine-induced current measured at the later state of compound application by patch-clamp assay.

Sequence of Glycine receptor (alpha-1/beta) (P48167 whole entry, one chain of several): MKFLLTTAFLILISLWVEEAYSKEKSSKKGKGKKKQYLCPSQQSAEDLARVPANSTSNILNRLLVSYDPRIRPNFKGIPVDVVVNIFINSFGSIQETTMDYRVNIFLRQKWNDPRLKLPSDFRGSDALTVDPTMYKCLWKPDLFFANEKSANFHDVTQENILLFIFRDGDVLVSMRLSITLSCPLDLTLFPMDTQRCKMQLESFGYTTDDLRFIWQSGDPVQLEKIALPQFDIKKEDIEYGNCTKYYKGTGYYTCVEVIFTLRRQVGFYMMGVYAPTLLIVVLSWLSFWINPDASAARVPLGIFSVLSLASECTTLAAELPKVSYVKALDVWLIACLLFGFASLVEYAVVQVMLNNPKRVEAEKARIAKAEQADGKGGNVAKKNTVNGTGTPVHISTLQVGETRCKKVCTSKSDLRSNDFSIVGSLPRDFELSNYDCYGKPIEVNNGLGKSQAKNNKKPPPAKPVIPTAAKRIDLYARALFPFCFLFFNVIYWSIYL

`O=C(CCCCCCCC(=O)NCC(=O)Nc1ccc2c(c1)[C@@]13CCN4CC5=CCO[C@H]6CC(=O)N2[C@H]1[C@H]6[C@H]5C[C@H]43)NCC(=O)Nc1ccc2c(c1)[C@@]13CCN4CC5=CCO[C@H]6CC(=O)N2[C@H]1[C@H]6[C@H]5C[C@H]43`: the figures for the IC50 in assay [1] (read-out: IC50), in assay [2] (read-out: IC50) and in assay [3] were 2100 nM, 1700 nM and 400 nM, respectively.

On to `CCCCCCCC(=O)NCC(=O)Nc1ccc2c(c1)[C@@]13CCN4CC5=CCO[C@H]6CC(=O)N2[C@H]1[C@H]6[C@H]5C[C@H]43`, for which the IC50 in assay [1] (read-out: IC50) was found to be 780 nM; in assay [2] (read-out: IC50) it was 510 nM; in assay [3], 90 nM.

`CCCCCCCC(=O)NCCCCCCCCCCC(=O)Nc1ccc2c(c1)[C@@]13CCN4CC5=CCO[C@H]6CC(=O)N2[C@H]1[C@H]6[C@H]5C[C@H]43`: the results for the IC50 in assay [1] (read-out: IC50), in assay [2] (read-out: IC50) and in assay [3] were 10000 nM, 5800 nM and 1700 nM, respectively.

Turning to `O=C(CCCCCCC(=O)NCC(=O)Nc1ccc2c(c1)[C@@]13CCN4CC5=CCO[C@H]6CC(=O)N2[C@H]1[C@H]6[C@H]5C[C@H]43)NCC(=O)Nc1ccc2c(c1)[C@@]13CCN4CC5=CCO[C@H]6CC(=O)N2[C@H]1[C@H]6[C@H]5C[C@H]43`, the IC50 in assay [1] (read-out: IC50) turned out to be 2800 nM; in assay [2] (read-out: IC50), 2400 nM; in assay [3] it was 170 nM.

Regarding `O=C(CCCCCCCCCCCCCCC(=O)NCCCCC(=O)Nc1ccc2c(c1)[C@@]13CCN4CC5=CCO[C@H]6CC(=O)N2[C@H]1[C@H]6[C@H]5C[C@H]43)NCCCCC(=O)Nc1ccc2c(c1)[C@@]13CCN4CC5=CCO[C@H]6CC(=O)N2[C@H]1[C@H]6[C@H]5C[C@H]43`, the results for the IC50 in assay [1] (read-out: IC50) and in assay [2] (read-out: IC50) were 7900 nM and 4100 nM, respectively.

Turning to `O=C(CCCCCC(=O)NCC(=O)Nc1ccc2c(c1)[C@@]13CCN4CC5=CCO[C@H]6CC(=O)N2[C@H]1[C@H]6[C@H]5C[C@H]43)NCC(=O)Nc1ccc2c(c1)[C@@]13CCN4CC5=CCO[C@H]6CC(=O)N2[C@H]1[C@H]6[C@H]5C[C@H]43`, the IC50 in assay [1] (read-out: IC50) was 2800 nM; in assay [1] (read-out: pIC50 (converted)) it was 2690 nM; in assay [2] (read-out: IC50), 2200 nM; in assay [3] it was 130 nM.

Take `O=C(CCCCCCCCCCCCCCCCCCCCC(=O)NCCCCCCCCCCC(=O)Nc1ccc2c(c1)[C@@]13CCN4CC5=CCO[C@H]6CC(=O)N2[C@H]1[C@H]6[C@H]5C[C@H]43)NCCCCCCCCCCC(=O)Nc1ccc2c(c1)[C@@]13CCN4CC5=CCO[C@H]6CC(=O)N2[C@H]1[C@H]6[C@H]5C[C@H]43`: the IC50 in assay [1] (read-out: IC50) was greater than 10000 nM; in assay [2] (read-out: IC50), greater than 10000 nM; in assay [3] it was 2900 nM. Also, the pIC50 in assay [1] (tsa201) and in assay [2] was less than 5 in each case.

Regarding `O=C(CCCCCCCCCCCCCCC(=O)NCCCCCCCCCCC(=O)Nc1ccc2c(c1)[C@@]13CCN4CC5=CCO[C@H]6CC(=O)N2[C@H]1[C@H]6[C@H]5C[C@H]43)NCCCCCCCCCCC(=O)Nc1ccc2c(c1)[C@@]13CCN4CC5=CCO[C@H]6CC(=O)N2[C@H]1[C@H]6[C@H]5C[C@H]43`, the IC50 was 10000 nM in assay [1] (read-out: IC50) and greater than 10000 nM in assay [2] (read-out: IC50). The pIC50 in assay [2] is on record as less than 5.

Take `COCCOCCOCCOCCOCCOCCOCCOCCOCCOCCOCCOCCC(=O)NCCCCCCCCCCC(=O)Nc1ccc2c(c1)[C@@]13CCN4CC5=CCO[C@H]6CC(=O)N2[C@H]1[C@H]6[C@H]5C[C@H]43`: the IC50 in assay [1] (read-out: IC50) turned out to be 20000 nM; in assay [2] (read-out: IC50), 10000 nM; in assay [5] it was 5720 nM; in assay [6], 158 nM. In assay [4], the Ki is 977 nM.

As for `O=C(CCCCCCCCCCCCC(=O)NCC(=O)Nc1ccc2c(c1)[C@@]13CCN4CC5=CCO[C@H]6CC(=O)N2[C@H]1[C@H]6[C@H]5C[C@H]43)NCC(=O)Nc1ccc2c(c1)[C@@]13CCN4CC5=CCO[C@H]6CC(=O)N2[C@H]1[C@H]6[C@H]5C[C@H]43`, the IC50 in assay [1] (read-out: IC50) stood at 1700 nM; in assay [2] (read-out: IC50), 2000 nM.

For the compound `O=C(CCOCCOCCOCCOCCOCCOCCOCCOCCOCCOCCOCCOCCC(=O)NCCCCC(=O)Nc1ccc2c(c1)[C@@]13CCN4CC5=CCO[C@H]6CC(=O)N2[C@H]1[C@H]6[C@H]5C[C@H]43)NCCCCC(=O)Nc1ccc2c(c1)[C@@]13CCN4CC5=CCO[C@H]6CC(=O)N2[C@H]1[C@H]6[C@H]5C[C@H]43`, the IC50 turned out to be 4300 nM in assay [1] (read-out: IC50), 1800 nM in assay [2] (read-out: IC50), 1340 nM in assay [5] and 55 nM in assay [6]. The compound further came in with a Ki in assay [4] of 81 nM.

As to `O=C(CCC(=O)Nc1ccc2c(c1)[C@@]13CCN4CC5=CCO[C@H]6CC(=O)N2[C@H]1[C@H]6[C@H]5C[C@H]43)Nc1ccc2c(c1)[C@@]13CCN4CC5=CCO[C@H]6CC(=O)N2[C@H]1[C@H]6[C@H]5C[C@H]43`, the IC50 in assay [1] (read-out: IC50) and in assay [2] (read-out: IC50) was 10000 nM each time.

Take `O=C(CCCCCCCCCCCCC(=O)Nc1ccc2c(c1)[C@@]13CCN4CC5=CCO[C@H]6CC(=O)N2[C@H]1[C@H]6[C@H]5C[C@H]43)Nc1ccc2c(c1)[C@@]13CCN4CC5=CCO[C@H]6CC(=O)N2[C@H]1[C@H]6[C@H]5C[C@H]43`: the IC50 stood at 430 nM in assay [1] (read-out: IC50) and 210 nM in assay [2] (read-out: IC50).

With `O=C(CCCCCCCCCCCCCCC(=O)NCC(=O)Nc1ccc2c(c1)[C@@]13CCN4CC5=CCO[C@H]6CC(=O)N2[C@H]1[C@H]6[C@H]5C[C@H]43)NCC(=O)Nc1ccc2c(c1)[C@@]13CCN4CC5=CCO[C@H]6CC(=O)N2[C@H]1[C@H]6[C@H]5C[C@H]43`, the IC50 in assay [1] (read-out: IC50) stood at 3200 nM; in assay [2] (read-out: IC50) it was 2200 nM.

With `O=C(CCCCCCCCCCC(=O)NCC(=O)Nc1ccc2c(c1)[C@@]13CCN4CC5=CCO[C@H]6CC(=O)N2[C@H]1[C@H]6[C@H]5C[C@H]43)NCC(=O)Nc1ccc2c(c1)[C@@]13CCN4CC5=CCO[C@H]6CC(=O)N2[C@H]1[C@H]6[C@H]5C[C@H]43`, the IC50 in assay [1] (read-out: IC50) was found to be 2700 nM; in assay [2] (read-out: IC50), 1900 nM; in assay [3], 100 nM.

Turning to `CCCCCCCC(=O)Nc1ccc2c(c1)[C@@]13CCN4CC5=CCO[C@H]6CC(=O)N2[C@H]1[C@H]6[C@H]5C[C@H]43`, the IC50 is 1200 nM in assay [1] (read-out: IC50) and 680 nM in assay [2] (read-out: IC50).

`O=C(CCCCCCCCC(=O)NCC(=O)Nc1ccc2c(c1)[C@@]13CCN4CC5=CCO[C@H]6CC(=O)N2[C@H]1[C@H]6[C@H]5C[C@H]43)NCC(=O)Nc1ccc2c(c1)[C@@]13CCN4CC5=CCO[C@H]6CC(=O)N2[C@H]1[C@H]6[C@H]5C[C@H]43`: the results for the IC50 in assay [1] (read-out: IC50) and in assay [2] (read-out: IC50) were 730 nM and 880 nM, respectively.

For `O=C(CCCCC(=O)Nc1ccc2c(c1)[C@@]13CCN4CC5=CCO[C@H]6CC(=O)N2[C@H]1[C@H]6[C@H]5C[C@H]43)Nc1ccc2c(c1)[C@@]13CCN4CC5=CCO[C@H]6CC(=O)N2[C@H]1[C@H]6[C@H]5C[C@H]43`, the IC50 amounted to 6100 nM in assay [1] (read-out: IC50) and 10000 nM in assay [2] (read-out: IC50).

Consider `O=C(CCCC(=O)Nc1ccc2c(c1)[C@@]13CCN4CC5=CCO[C@H]6CC(=O)N2[C@H]1[C@H]6[C@H]5C[C@H]43)Nc1ccc2c(c1)[C@@]13CCN4CC5=CCO[C@H]6CC(=O)N2[C@H]1[C@H]6[C@H]5C[C@H]43`, for which the IC50 in assay [1] (read-out: IC50) was found to be 10000 nM; in assay [2] (read-out: IC50), 30000 nM.

For `O=C(CCCCCCC(=O)NCCCCCCCCCCC(=O)Nc1ccc2c(c1)[C@@]13CCN4CC5=CCO[C@H]6CC(=O)N2[C@H]1[C@H]6[C@H]5C[C@H]43)NCCCCCCCCCCC(=O)Nc1ccc2c(c1)[C@@]13CCN4CC5=CCO[C@H]6CC(=O)N2[C@H]1[C@H]6[C@H]5C[C@H]43`, the IC50 in assay [1] (read-out: IC50) was 30000 nM; in assay [2] (read-out: IC50), 20000 nM; in assay [2] (read-out: pIC50 (converted)), 50100 nM; in assay [3] it was 1400 nM.

Regarding `COCCOCCOCCOCCOCCOCCOCCOCCOCCOCCOCCOCCC(=O)NCCCCC(=O)Nc1ccc2c(c1)[C@@]13CCN4CC5=CCO[C@H]6CC(=O)N2[C@H]1[C@H]6[C@H]5C[C@H]43`, the IC50 in assay [1] (read-out: IC50) was 15000 nM; in assay [2] (read-out: IC50), 10000 nM; in assay [5], 852 nM; in assay [6], 137 nM. In assay [4], the affinity corresponds to a Ki of 436 nM.

Turning to `O=C(CCCCCCCCCCC(=O)NCCCCCCCCCCC(=O)Nc1ccc2c(c1)[C@@]13CCN4CC5=CCO[C@H]6CC(=O)N2[C@H]1[C@H]6[C@H]5C[C@H]43)NCCCCCCCCCCC(=O)Nc1ccc2c(c1)[C@@]13CCN4CC5=CCO[C@H]6CC(=O)N2[C@H]1[C@H]6[C@H]5C[C@H]43`, the IC50 is 30000 nM in assay [1] (read-out: IC50), 50000 nM in assay [2] (read-out: IC50), 31600 nM in assay [2] (read-out: pIC50 (converted)) and 3100 nM in assay [3].
